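Where inhibition never reached the appropriate level, the endpoint shown equals the highest concentration tested. Otherwise, values were interpolated linearly from a five-concentration, 48-hour dose response in 96-well plates. The concentration for 50% growth inhibition is given as GI50.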 Active and inactive are the calls of the source. Cut-off read from the data, not from the text of the source: active = GI50 up to about 1.1 µM and inactive = higher.
Tests used:
Test in all cases: inhibition of tumour cell growth, NCI panel, 48 h
A498 = test system: A498
ACHN = test system: ACHN
CCRF-CEM = test system: CCRF-CEM
COLO 205 = test system: COLO 205
DMS-114 = test system: DMS-114
HCC 2998 = test system: HCC 2998
HCT-116 = test system: HCT-116
HOP-62 = test system: HOP-62
HOP-92 = test system: HOP-92
HT-29 = test system: HT-29
IGROV-1 = test system: IGROV-1
K562 = test system: K562
KM12 = test system: KM12
LXFL 529 = test system: LXFL 529
M14 = test system: M14
M19-MEL = test system: M19-MEL
MOLT-4 = test system: MOLT-4
NCI-H23 = test system: NCI-H23
NCI-H460 = test system: NCI-H460
NCI-H522 = test system: NCI-H522
OVCAR-3 = test system: OVCAR-3
OVCAR-4 = test system: OVCAR-4
RPMI-8226 = test system: RPMI-8226
RXF 393 = test system: RXF 393
SF-268 = test system: SF-268
SF-295 = test system: SF-295
SF-539 = test system: SF-539
SK-MEL-28 = test system: SK-MEL-28
SK-MEL-2 = test system: SK-MEL-2
SK-OV-3 = test system: SK-OV-3
SNB-19 = test system: SNB-19
SNB-75 = test system: SNB-75
SNB-78 = test system: SNB-78
SR = test system: SR
UACC-257 = test system: UACC-257
UACC-62 = test system: UACC-62
UO-31 = test system: UO-31
786-0 = test system: 786-0
A549 = test system: A549
BT-549 = test system: BT-549
CAKI-1 = test system: CAKI-1
DU-145 = test system: DU-145
EKVX = test system: EKVX
HCT-15 = test system: HCT-15
HL-60 = test system: HL-60
Hs-578T = test system: Hs-578T
LOX IMVI = test system: LOX IMVI
MCF7 = test system: MCF7
MDA-MB-231 = test system: MDA-MB-231
MDA-MB-435 = test system: MDA-MB-435
MDA-N = test system: MDA-N
Malme-3M = test system: Malme-3M
NCI-H226 = test system: NCI-H226
NCI/ADR-RES = test system: NCI/ADR-RES
OVCAR-5 = test system: OVCAR-5
OVCAR-8 = test system: OVCAR-8
PC-3 = test system: PC-3
SK-MEL-5 = test system: SK-MEL-5
SN12C = test system: SN12C
SW-620 = test system: SW-620
T47D = test system: T47D
TK-10 = test system: TK-10
U-251 = test system: U-251

## COc1cc2ccc1NC(=O)N1CCN(CC1)C(=O)Nc1ccc(cc1OC)-c1ccc(c(OC)c1)NC(=O)N1CCN(CC1)C(=O)Nc1ccc-2cc1OC
A498
  GI50: > 100 µM (inactive)
ACHN
  GI50: > 100 µM (inactive)
CCRF-CEM
  GI50: > 100 µM (inactive)
COLO 205
  GI50: > 100 µM (inactive)
DMS-114
  GI50: > 100 µM (inactive)
HCC 2998
  GI50: > 100 µM (inactive)
HCT-116
  GI50: > 100 µM (inactive)
HOP-62
  GI50: > 100 µM (inactive)
HOP-92
  GI50: > 100 µM (inactive)
HT-29
  GI50: > 100 µM (inactive)
IGROV-1
  GI50: > 100 µM (inactive)
K562
  GI50: > 100 µM (inactive)
KM12
  GI50: > 100 µM (inactive)
LXFL 529
  GI50: > 100 µM (inactive)
M14
  GI50: > 100 µM (inactive)
M19-MEL
  GI50: > 100 µM (inactive)
MOLT-4
  GI50: > 100 µM (inactive)
NCI-H23
  GI50: > 100 µM (inactive)
NCI-H460
  GI50: > 100 µM (inactive)
NCI-H522
  GI50: > 100 µM (inactive)
OVCAR-3
  GI50: > 100 µM (inactive)
OVCAR-4
  GI50: > 100 µM (inactive)
RPMI-8226
  GI50: > 100 µM (inactive)
RXF 393
  GI50: > 100 µM (inactive)
SF-268
  GI50: > 100 µM (inactive)
SF-295
  GI50: > 100 µM (inactive)
SF-539
  GI50: > 100 µM (inactive)
SK-MEL-28
  GI50: > 100 µM (inactive)
SK-MEL-2
  GI50: > 100 µM (inactive)
SK-OV-3
  GI50: > 100 µM (inactive)
SNB-19
  GI50: > 100 µM (inactive)
SNB-75
  GI50: > 100 µM (inactive)
SNB-78
  GI50: > 100 µM (inactive)
SR
  GI50: > 100 µM (inactive)
UACC-257
  GI50: > 100 µM (inactive)
UACC-62
  GI50: > 100 µM (inactive)
UO-31
  GI50: > 100 µM (inactive)

## COc1c2occc2c(OC)c2c(=O)c(S(=O)(=O)NC(=O)Nc3ccc(Cl)cc3)coc12
786-0
  GI50: > 10 µM (inactive)
A498
  GI50: > 10 µM (inactive)
A549
  GI50: > 10 µM (inactive)
ACHN
  GI50: > 10 µM (inactive)
BT-549
  GI50: > 10 µM (inactive)
CAKI-1
  GI50: > 10 µM (inactive)
CCRF-CEM
  GI50: > 10 µM (inactive)
COLO 205
  GI50: > 10 µM (inactive)
DU-145
  GI50: > 10 µM (inactive)
EKVX
  GI50: > 10 µM (inactive)
HCC 2998
  GI50: > 10 µM (inactive)
HCT-116
  GI50: > 10 µM (inactive)
HCT-15
  GI50: > 10 µM
HL-60
  GI50: > 10 µM (inactive)
HOP-62
  GI50: > 10 µM (inactive)
HOP-92
  GI50: > 10 µM (inactive)
HT-29
  GI50: > 10 µM (inactive)
Hs-578T
  GI50: > 10 µM (inactive)
IGROV-1
  GI50: > 10 µM (inactive)
K562
  GI50: > 10 µM (inactive)
KM12
  GI50: > 10 µM (inactive)
LOX IMVI
  GI50: > 10 µM (inactive)
M14
  GI50: > 10 µM (inactive)
MCF7
  GI50: > 10 µM (inactive)
MDA-MB-231
  GI50: > 10 µM (inactive)
MDA-MB-435
  GI50: > 10 µM (inactive)
MDA-N
  GI50: > 10 µM (inactive)
MOLT-4
  GI50: > 10 µM (inactive)
Malme-3M
  GI50: > 10 µM (inactive)
NCI-H226
  GI50: > 10 µM (inactive)
NCI-H23
  GI50: > 10 µM (inactive)
NCI-H460
  GI50: > 10 µM (inactive)
NCI-H522
  GI50: > 10 µM (inactive)
NCI/ADR-RES
  GI50: > 10 µM (inactive)
OVCAR-3
  GI50: > 10 µM (inactive)
OVCAR-4
  GI50: > 10 µM (inactive)
OVCAR-5
  GI50: > 10 µM (inactive)
OVCAR-8
  GI50: > 10 µM (inactive)
PC-3
  GI50: > 10 µM (inactive)
RPMI-8226
  GI50: > 10 µM (inactive)
RXF 393
  GI50: > 10 µM (inactive)
SF-268
  GI50: > 10 µM (inactive)
SF-295
  GI50: > 10 µM (inactive)
SF-539
  GI50: > 10 µM (inactive)
SK-MEL-28
  GI50: > 10 µM (inactive)
SK-MEL-2
  GI50: > 10 µM (inactive)
SK-MEL-5
  GI50: > 10 µM (inactive)
SK-OV-3
  GI50: > 10 µM (inactive)
SN12C
  GI50: > 10 µM (inactive)
SNB-19
  GI50: > 10 µM (inactive)
SR
  GI50: > 10 µM (inactive)
SW-620
  GI50: > 10 µM (inactive)
T47D
  GI50: > 10 µM (inactive)
TK-10
  GI50: > 10 µM (inactive)
U-251
  GI50: > 10 µM (inactive)
UACC-257
  GI50: > 10 µM (inactive)
UACC-62
  GI50: > 10 µM (inactive)
UO-31
  GI50: > 10 µM (inactive)

## C=C1CC2(CC(c3ccccc3OC)OC(c3ccccc3OC)C2)OC1=O (centres undefined)
786-0
  GI50: 1.63 µM (inactive)
A498
  GI50: 5.81 µM (inactive)
A549
  GI50: 4.76 µM (inactive)
ACHN
  GI50: 2.29 µM (inactive)
BT-549
  GI50: 1.64 µM (inactive)
CAKI-1
  GI50: 2.47 µM (inactive)
CCRF-CEM
  GI50: 1.71 µM (inactive)
COLO 205
  GI50: 2.36 µM (inactive)
DU-145
  GI50: 7.8 µM (inactive)
EKVX
  GI50: 14.6 µM (inactive)
HCC 2998
  GI50: 2.49 µM (inactive)
HCT-116
  GI50: 1.78 µM (inactive)
HCT-15
  GI50: 2.28 µM
HL-60
  GI50: 0.771 µM (active)
HOP-62
  GI50: 13.6 µM (inactive)
HOP-92
  GI50: 1.64 µM (inactive)
HT-29
  GI50: 2.06 µM (inactive)
Hs-578T
  GI50: 2.02 µM (inactive)
IGROV-1
  GI50: 1.74 µM (inactive)
K562
  GI50: 2.06 µM (inactive)
KM12
  GI50: 2.27 µM (inactive)
LOX IMVI
  GI50: 1.47 µM (inactive)
M14
  GI50: 1.72 µM (inactive)
MCF7
  GI50: 1.67 µM (inactive)
MDA-MB-231
  GI50: 1.77 µM (inactive)
MDA-MB-435
  GI50: 1.91 µM (inactive)
MDA-N
  GI50: 1.83 µM (inactive)
MOLT-4
  GI50: 2.07 µM (inactive)
Malme-3M
  GI50: 1.72 µM (inactive)
NCI-H226
  GI50: 8.41 µM (inactive)
NCI-H23
  GI50: 2.1 µM (inactive)
NCI-H460
  GI50: 5.75 µM (inactive)
NCI-H522
  GI50: 1.5 µM (inactive)
NCI/ADR-RES
  GI50: 2.47 µM (inactive)
OVCAR-3
  GI50: 1.87 µM (inactive)
OVCAR-4
  GI50: 4.35 µM (inactive)
OVCAR-5
  GI50: 7.46 µM (inactive)
OVCAR-8
  GI50: 1.8 µM (inactive)
PC-3
  GI50: 2.06 µM (inactive)
RPMI-8226
  GI50: 0.25 µM (active)
RXF 393
  GI50: 1.81 µM (inactive)
SF-268
  GI50: 2.55 µM (inactive)
SF-295
  GI50: 7.38 µM (inactive)
SF-539
  GI50: 2.15 µM (inactive)
SK-MEL-28
  GI50: 1.45 µM (inactive)
SK-MEL-2
  GI50: 1.91 µM (inactive)
SK-MEL-5
  GI50: 2.58 µM (inactive)
SK-OV-3
  GI50: 12.8 µM (inactive)
SN12C
  GI50: 1.97 µM (inactive)
SNB-19
  GI50: 7.55 µM (inactive)
SNB-75
  GI50: 2.59 µM (inactive)
SR
  GI50: 1.84 µM (inactive)
SW-620
  GI50: 1.72 µM (inactive)
T47D
  GI50: 1.72 µM (inactive)
TK-10
  GI50: 1.71 µM (inactive)
U-251
  GI50: 7.16 µM (inactive)
UACC-257
  GI50: 2.07 µM (inactive)
UACC-62
  GI50: 2.18 µM (inactive)
UO-31
  GI50: 1.52 µM (inactive)

Reference: ChEMBL document CHEMBL1201862, “PubChem BioAssay data set” (2004)
